Common to all, as to experiment: MIC, antibacterial and synergistic activity
Assay type in all cases: cell-based

For one test, the system named is K. pneumo JMI 2674. The settings on record: K. pneumo JMI 2674, CTX-M15 (ESBL); substance alone.
For another test, the system named is K. pneumo JMI 4088. The settings on record: K. pneumo JMI 4088, KPC-3 (Cpase); substance alone.
The next test relates to E. coli JMI 4080. The settings on record: Escherichia coli, JMI4080, E. coli JMI 4080, Tem-10; substance alone.
In another test the test system is E. coli JMI 10770. The settings on record: Escherichia coli, JMI10770; E. coli JMI 10770, CTX-M15 (Hyper ESBL); substance alone.
Another test concerns E. coli JMI 2665. The settings on record: Escherichia coli, JMI2665, read-out: MIC alone.
A further test relates to K. pneumo JMI 4106. The settings on record: K. pneumo JMI 4106, KPC-3, TEM-1, SHV-12, SHV-141; substance alone.
Another test deals with K. pneumo JMI 4109. The conditions noted are these: K. pneumo JMI 4109, SHV-1, SHV-12; substance alone.
The test system of the next test is K. pneumo JMI 2699. The conditions noted are these: K. pneumo JMI 2699, VIM-1, CTX-M3; substance alone. Here is the method:
(§1) In the Tables 10-12, compounds of the present invention were tested in combination with various antibiotics against metallo β-lactamase producing bacteria.

A further test deals with E. coli JMI 10767. The conditions noted are these: Escherichia coli, JMI10767; E. coli JMI 10767, Wt; substance alone. As to the method:
as §1

The next test has as its system A. baumanii JMI 2659. The conditions noted are these: Acinetobacter baumannii, JMI2659; A. baumanii JMI 2659, Ges-14 (Cpase); substance alone. Here is the method: as §1
In the next test the test system is P. aerug JMI 149. The conditions noted are these: P. aerug JMI 149, Bla+++D+; substance alone. Here is the method: as §1
In the next test the test system is E. cloacae JMI 36. The settings on record: Enterobacter cloacae, JMI36; E. cloacae JMI 36, P99; substance alone. Here is the method:
as §1

Another test has as its system E. coli JMI 2692. The conditions noted are these: Escherichia coli, JMI2692; E. coli JMI 2692, NDM-1, TEM-1, CTX-M-15; substance alone. As to the method: as §1
For a further test, the system named is E. coli ATCC 25922. The conditions noted are these: Escherichia coli, ATCC25922, E. coli ATCC 25922, enzyme Wt; substance alone. As to the method: as §1
The subject of the next test is K. pneumo JMI 2693. The settings on record: K. pneumo JMI 2693, NDM-1 (Cpase); substance alone. As to the method:
as §1

The subject of the next test is K. pneumo JMI 2697. The settings on record: K. pneumo JMI 2697, IMP-4 (Cpase); substance alone. Here is the method: as §1
The next test concerns E. coli JMI 2671. The settings on record: Escherichia coli, JMI2671, E. coli JMI 2671, VIM-19 (Cpase); substance alone. Here is the method: as §1
A further test concerns P. aerug JMI 2686. The settings on record: P. aerug JMI 2686, KPC-2 (Cpase); substance alone.
The next test has as its system E. coli JMI 11103. The settings on record: Escherichia coli, JMI11103, E. coli JMI 11103, CTX-M15 (Intermediate ESBL); substance alone.
For a further test, the system named is E. coli JMI 10768. The conditions noted are these: Escherichia coli, JMI10768; E. coli JMI 10768, CTX-M15 (Weak ESBL); substance alone.
For the next test, the system named is K. pneumo JMI 2673. The conditions noted are these: K. pneumo JMI 2673, CTX-M14 (ESBL); substance alone.
A further test deals with E. coli JMI 4103. The conditions noted are these: Escherichia coli, JMI4103; E. coli JMI 4103, KPC-2, Tem-1, CMY-Type; substance alone.
The next test concerns K. pneumo JMI 2681. The settings on record: K. pneumo JMI 2681, Oxa-48 (Cpase); substance alone.

Bounds are passed on as bounds.

A word on the MIC: it is the lowest concentration found to suppress growth. As for `O=C(NNC(=O)[C@H]1CC[C@H]2CN1C(=O)N2OS(=O)(=O)O)C1CNC1` (stereo in doubt) [Ex. 67, (2R,5S)-N′-(azetidin-3-ylcarbonyl)-7-oxo-6-(sulfooxy)-1,6-diazabicyclo[3.2.1]octane-2-carbohydrazide], the MIC is greater than 16 µg/mL in the test on K. pneumo JMI 2674; 16 µg/mL in the test on K. pneumo JMI 4088; 16 µg/mL in the test with E. coli JMI 4080; greater than 16 µg/mL with E. coli JMI 10770; 8 µg/mL in the test with E. coli JMI 2665; 8 µg/mL in the test with K. pneumo JMI 4106. The MIC in the test on K. pneumo JMI 4109 is 4 µg/mL; in the test on K. pneumo JMI 2699, greater than 16 µg/mL; in the test with E. coli JMI 10767 it was greater than 16 µg/mL; with A. baumanii JMI 2659, greater than 16 µg/mL; in the test with P. aerug JMI 149, 16 µg/mL; in the test on E. cloacae JMI 36, greater than 16 µg/mL. For the same molecule, the minimum inhibitory concentration (MIC) in the test with E. coli JMI 2692 was 8 µg/mL; in the test with E. coli ATCC 25922 it was greater than 16 µg/mL; with K. pneumo JMI 2693, greater than 16 µg/mL; in the test with K. pneumo JMI 2697 it was 16 µg/mL; in the test with E. coli JMI 2671 it was greater than 16 µg/mL; in the test with P. aerug JMI 2686, 16 µg/mL. In addition, the MIC is greater than 16 µg/mL in the test on E. coli JMI 11103; greater than 16 µg/mL with E. coli JMI 10768; greater than 16 µg/mL in the test with K. pneumo JMI 2673; 16 µg/mL in the test with E. coli JMI 4103; greater than 16 µg/mL in the test with K. pneumo JMI 2681.

For the origin of these results see patent US10544146B2, “Bicyclic compounds and their use as antibacterial agents and β-lactamase inhibitors” (priority 2011, dated 2020).
